Experimental data from patent US10669283B2, “Compound and pharmacologically acceptable salt thereof” (MEIJI SEIKA PHARMA CO., LTD., priority 2016, dated 2020).

Test system: PDE4
Test: PDE4 inhibition, scintillation proximity assay (SPA);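 also: A below 100 nM B 100 to below 1000 nM C 1000 nM or more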
Type: biochemical
Settings: scintillation proximity assay (SPA); evaluated as classes A, B, C; read-out: PDE4 Inhibitory Activity (concentration for the inhibition rate of 50%)
Outline: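 Compound pre-diluted 1:10 in 50 mM Tris-HCl pH 7.4, 8.3 mM MgCl2, 1.7 mM EGTA, 3 mg/mL BSA, then incubated with PDE4 and [2,8-3H]-cAMP for 120 min at room temperature. Product captured on ZnSO4-containing YSi-SPA beads for 15 min; radioactivity counted against no-enzyme blank and DMSO control.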

| Compound | IC50 [µM] |
| --- | --- |
| COC(c1cc(-c2nccs2)c2oc(N3CC4CC(C3)N4)nc2c1)C(F)(F)F (centres unmarked) [Example 144, 2-(3,6-Diazabicyclo[3.1.1]heptan-3-yl)-7-(thiazol-2-yl)-5-(2,2,2-trifluoro-1-methoxyethyl)benzo[d]oxazole] | < 0.1 |
| COC(c1cc(-c2nccs2)c2oc(N3CC4CCCC(C3)N4)nc2c1)C(F)(F)F (centres unmarked) [Example 145, 2-(3,9-Diazabicyclo[3.3.1]nonan-3-yl)-7-(thiazol-2-yl)-5-(2,2,2-trifluoro-1-methoxyethyl)benzo[d]oxazole] | < 0.1 |
| FC(F)(F)COC(c1cc(-c2nccs2)c2oc(N3CC4CCC(C3)N4)nc2c1)C(F)(F)F (centres unmarked) [Example 146, 2-(3,8-Diazabicyclo[3.2.1]octan-3-yl)-7-(thiazol-2-yl)-5-(2,2,2-trifluoro-1-(2,2,2-trifluoroethoxy)ethyl)benzo[d]oxazole] | < 0.1 |
| COCCOC(c1cc(-c2nccs2)c2oc(N3CC4CCC(C3)N4)nc2c1)C(F)(F)F (centres unmarked) [Example 147, 2-(3,8-Diazabicyclo[3.2.1]octan-3-yl)-7-(thiazol-2-yl)-5-(2,2,2-trifluoro-1-(2-methoxyethoxy)ethyl)benzo[d]oxazole] | < 0.1 |
| CCOC(c1cc(-c2nccs2)c2oc(N3CC4CCC(C3)N4)nc2c1)C(F)(F)F (centres unmarked) [Example 148, 2-(3,8-Diazabicyclo[3.2.1]octan-3-yl)-5-(1-ethoxy-2,2,2-trifluoroethyl)-7-(thiazol-2-yl)benzo[d]oxazole] | < 0.1 |
| OCCOC(c1cc(-c2nccs2)c2oc(N3CC4CCC(C3)N4)nc2c1)C(F)(F)F (centres unmarked) [Example 149, 2-(1-(2-(3,8-Diazabicyclo[3.2.1]octan-3-yl)-7-(thiazol-2-yl)benzo[d]oxazol-5-yl)-2,2,2-trifluoroethoxy)ethan-1-ol] | < 0.1 |
| CCOC(c1cc(-c2nccs2)c2oc(N3CC4CC(C3)N4)nc2c1)C(F)(F)F (centres unmarked) [Example 150, 2-(3,6-Diazabicyclo[3.1.1]heptan-3-yl)-5-(1-ethoxy-2,2,2-trifluoroethyl)-7-(thiazol-2-yl)benzo[d]oxazole] | < 0.1 |
| FC(F)(F)COC(c1cc(-c2nccs2)c2oc(N3CC4CC(C3)N4)nc2c1)C(F)(F)F (centres unmarked) [Example 151, 2-(3,6-Diazabicyclo[3.1.1]heptan-3-yl)-7-(thiazol-2-yl)-5-(2,2,2-trifluoro-1-(2,2,2-trifluoroethoxy)ethyl)benzo[d]oxazole] | < 0.1 |
| N#CCOC(c1cc(-c2nccs2)c2oc(N3CC4CC(C3)N4)nc2c1)C(F)(F)F (centres unmarked) [Example 152, 2-(1-(2-(3,6-Diazabicyclo[3.1.1]heptan-3-yl)-7-(thiazol-2-yl)benzo[d]oxazol-5-yl)-2,2,2-trifluoroethoxy)acetonitrile] | < 0.1 |
| N#CCOC(c1cc(-c2nccs2)c2oc(N3CC4CCC(C3)N4)nc2c1)C(F)(F)F (centres unmarked) [Example 153, 2-(1-(2-(3,8-Diazabicyclo[3.2.1]octan-3-yl)-7-(thiazol-2-yl)benzo[d]oxazol-5-yl)-2,2,2-trifluoroethoxy)acetonitrile] | < 0.1 |
| COCCOC(c1cc(-c2nccs2)c2oc(N3CC4CC(C3)N4)nc2c1)C(F)(F)F (centres unmarked) [Example 154, 2-(3,6-Diazabicyclo[3.1.1]heptan-3-yl)-7-(thiazol-2-yl)-5-(2,2,2-trifluoro-1-(2-methoxyethoxy)ethyl)benzo[d]oxazole] | < 0.1 |
| CC(O)COC(c1cc(-c2nccs2)c2oc(N3CC4CCC(C3)N4)nc2c1)C(F)(F)F (centres unmarked) [Example 155, 1-(1-(2-(3,8-Diazabicyclo[3.2.1]octan-3-yl)-7-(thiazol-2-yl)benzo[d]oxazol-5-yl)-2,2,2-trifluoroethoxy)propan-2-ol] | < 0.1 |
| OC(O)(c1cc(-c2nccs2)c2oc(N3CC4CCCC(C3)N4)nc2c1)C(F)(F)F [Example 156, 1-(2-(3,9-Diazabicyclo[3.3.1]nonan-3-yl)-7-(thiazol-2-yl)benzo[d]oxazol-5-yl)-2,2,2-trifluoroethane-1,1-diol] | < 0.1 |
| OC(O)(c1cc(-c2nccs2)c2oc(N3CC4CCC(C3)N4)nc2c1)C(F)(F)F [Example 157, 1-(2-(3,8-Diazabicyclo[3.2.1]octan-3-yl)-7-(thiazol-2-yl)benzo[d]oxazol-5-yl)-2,2,2-trifluoroethane-1,1-diol] | < 0.1 |
| OC(O)(c1cc(-c2nccs2)c2oc(N3CC4CC(C3)N4)nc2c1)C(F)(F)F [Example 158, 1-(2-(3,6-Diazabicyclo[3.1.1]heptan-3-yl)-7-(thiazol-2-yl)benzo[d]oxazol-5-yl)-2,2,2-trifluoroethane-1,1-diol] | 0.1 to 1 |
| CC(O)(c1cc(-c2nccs2)c2oc(N3CC4CCC(C3)N4)nc2c1)C(F)(F)F (centres unmarked) [Example 159, 2-(2-(3,8-Diazabicyclo[3.2.1]octan-3-yl)-7-(thiazol-2-yl)benzo[d]oxazol-5-yl)-1,1,1-trifluoropropan-2-ol] | < 0.1 |
| CC(O)(c1cc(-c2nccs2)c2oc(N3CC4CC(C3)N4)nc2c1)C(F)(F)F (centres unmarked) [Example 160, 2-(2-(3,6-Diazabicyclo[3.1.1]heptan-3-yl)-7-(thiazol-2-yl)benzo[d]oxazol-5-yl)-1,1,1-trifluoropropan-2-ol] | < 0.1 |
| CC(O)(c1cc(-c2nccs2)c2oc(N3CC4CCCC(C3)N4)nc2c1)C(F)(F)F (centres unmarked) [Example 161, 2-(2-(3,9-Diazabicyclo[3.3.1]nonan-3-yl)-7-(thiazol-2-yl)benzo[d]oxazol-5-yl)-1,1,1-trifluoropropan-2-ol] | < 0.1 |

| Compound | IC50 [µM] |
| --- | --- |
| COC(C)(c1cc(-c2nccs2)c2oc(N3CC4CCCC(C3)N4)nc2c1)C(F)(F)F (centres unmarked) [Example 162] | < 0.1 |
| CCOC(=O)c1cc(-c2nccs2)c2oc(N3CC4CCC(C3)N4)nc2c1C(F)(F)F [Example 163, Ethyl 2-(3,8-diazabicyclo[3.2.1]octan-3-yl)-7-(thiazol-2-yl)-4-(trifluoromethyl)benzo[d]oxazole-5-carboxylate] | < 0.1 |
| CCOC(=O)c1cc(-c2nccs2)c2oc(N3CC4CCCC(C3)N4)nc2c1C(F)(F)F [Example 164, Ethyl 2-(3,9-diazabicyclo[3.3.1]nonan-3-yl)-7-(thiazol-2-yl)-4-(trifluoromethyl)benzo[d]oxazole-5-carboxylate] | < 0.1 |
| CCOC(=O)c1cc(-c2nccs2)c2oc(N3CC4CC(C3)N4)nc2c1C(F)(F)F [Example 165, Ethyl 2-(3,6-diazabicyclo[3.1.1]heptan-3-yl)-7-(thiazol-2-yl)-4-(trifluoromethyl)benzo[d]oxazole-5-carboxylate] | < 0.1 |
| CC(C)(O)c1cc(-c2nccs2)c2oc(N3CC4CCCC(C3)N4)nc2c1C(F)(F)F [Example 166, 2-(2-(3,9-Diazabicyclo[3.3.1]nonan-3-yl)-7-(thiazol-2-yl)-4-(trifluoromethyl)benzo[d]oxazol-5-yl)propan-2-ol] | < 0.1 |
| COCc1cc(-c2nccs2)c2oc(N3CC4CCC(C3)N4)nc2c1C(F)(F)F [Example 167, 2-(3,8-Diazabicyclo[3.2.1]octan-3-yl)-5-(methoxymethyl)-7-(thiazol-2-yl)-4-(trifluoromethyl)benzo[d]oxazole] | < 0.1 |
| c1csc(-c2cc(CN3CCOCC3)cc3nc(N4CC5CCC(C4)N5)oc23)n1 [Example 168, 2-(3,8-Diazabicyclo[3.2.1]octan-3-yl)-5-(morpholinomethyl)-7-(thiazol-2-yl)benzo[d]oxazole] | < 0.1 |
| CN(C)Cc1cc(-c2nccs2)c2oc(N3CC4CCC(C3)N4)nc2c1 [Example 169, 1-(2-(3,8-Diazabicyclo[3.2.1]octan-3-yl)-7-(thiazol-2-yl)benzo[d]oxazol-5-yl)-N,N-dimethylmethanamine] | < 0.1 |
| OCc1cc(-c2nccs2)c2oc(N3CC4CCC(C3)N4)nc2c1C(F)(F)F [Example 170, (2-(3,8-Diazabicyclo[3.2.1]octan-3-yl)-7-(thiazol-2-yl)-4-(trifluoromethyl)benzo[d]oxazol-5-yl)methanol] | < 0.1 |
| COC(C)(C)c1cc(-c2nccs2)c2oc(N3CC4CCC(C3)N4)nc2c1C(F)(F)F [Example 171, 2-(3,8-Diazabicyclo[3.2.1]octan-3-yl)-5-(2-methoxypropan-2-yl)-7-(thiazol-2-yl)-4-(trifluoromethyl)benzo[d]oxazole] | < 0.1 |
| CC(C)(O)c1cc(-c2nccs2)c2oc(N3CC4CCC(C3)N4)nc2c1 [Example 172, 2-(2-(3,8-Diazabicyclo[3.2.1]octan-3-yl)-7-(thiazol-2-yl)benzo[d]oxazol-5-yl)propan-2-ol] | < 0.1 |
| CC(C)(O)c1cc(-c2nccs2)c2oc(N3CC4CC(C3)N4)nc2c1 [Example 173, 2-(2-(3,6-Diazabicyclo[3.1.1]heptan-3-yl)-7-(thiazol-2-yl)benzo[d]oxazol-5-yl)propan-2-ol] | < 0.1 |
| COC(C)(C)c1cc(-c2nccs2)c2oc(N3CC4CC(C3)N4)nc2c1 [Example 174, 2-(3,6-Diazabicyclo[3.1.1]heptan-3-yl)-5-(2-methoxypropan-2-yl)-7-(thiazol-2-yl)benzo[d]oxazole] | < 0.1 |
| COC(C)(C)c1cc(-c2nccs2)c2oc(N3CC4CCC(C3)N4)nc2c1 [Example 175, 2-(3,8-Diazabicyclo[3.2.1]octan-3-yl)-5-(2-methoxypropan-2-yl)-7-(thiazol-2-yl)benzo[d]oxazole] | < 0.1 |
| COC(C)(C)c1cc(-c2nccs2)c2oc(N3CC4CC(C3)N4)nc2c1C(F)(F)F [Example 176, 2-(3,6-Diazabicyclo[3.1.1]heptan-3-yl)-5-(2-methoxypropan-2-yl)-7-(thiazol-2-yl)-4-(trifluoromethyl)benzo[d]oxazole] | < 0.1 |
| CC(C)(O)c1cc(-c2nccs2)c2oc(N3CC4CCC(C3)N4)nc2c1C(F)(F)F [Example 177, 2-(2-(3,8-Diazabicyclo[3.2.1]octan-3-yl)-7-(thiazol-2-yl)-4-(trifluoromethyl)benzo[d]oxazol-5-yl)propan-2-ol] | < 0.1 |
| CC(C)(O)c1cc(-c2nccs2)c2oc(N3CC4CC(C3)N4)nc2c1C(F)(F)F [Example 178, 2-(2-(3,6-Diazabicyclo[3.1.1]heptan-3-yl)-7-(thiazol-2-yl)-4-(trifluoromethyl)benzo[d]oxazol-5-yl)propan-2-ol] | < 0.1 |
